Laboratory results taken from PubChem BioAssay (NCI).
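96-well plates; 48 h exposure; 5 concentrations. Endpoints by linear interpolation between flanking doses. Not reached: highest tested concentration assigned. TGI is the concentration that stops growth completely.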

Key:
Assay in all cases: NCI anticancer screen, dose series, 48 h
CAKI-1 renal = system: CAKI-1 renal
SK-MEL-28 melanoma = system: SK-MEL-28 melanoma
SF-268 CNS = system: SF-268 CNS
HCT-15 colon = system: HCT-15 colon
786-0 renal = system: 786-0 renal
SK-MEL-2 melanoma = system: SK-MEL-2 melanoma
EKVX NSCLC = system: EKVX NSCLC
K-562 leukemia = system: K-562 leukemia
SNB-75 CNS = system: SNB-75 CNS
SW-620 colon = system: SW-620 colon
U251 CNS = system: U251 CNS
NCI-H23 lung = system: NCI-H23 lung
MCF7 breast = system: MCF7 breast
KM12 colon = system: KM12 colon
NCI-H460 lung = system: NCI-H460 lung
OVCAR-5 ovarian = system: OVCAR-5 ovarian
SNB-19 CNS = system: SNB-19 CNS
SN12C renal = system: SN12C renal
NCI-H522 lung = system: NCI-H522 lung
RXF 393 renal = system: RXF 393 renal
ACHN renal = system: ACHN renal
MDA-MB-435 = system: MDA-MB-435
NCI/ADR-RES ovarian = system: NCI/ADR-RES ovarian
UO-31 renal = system: UO-31 renal
HT29 colon = system: HT29 colon
CCRF-CEM leukemia = system: CCRF-CEM leukemia
MALME-3M melanoma = system: MALME-3M melanoma
HS 578T breast = system: HS 578T breast
NCI-H226 lung = system: NCI-H226 lung
SK-OV-3 ovarian = system: SK-OV-3 ovarian
SK-MEL-5 melanoma = system: SK-MEL-5 melanoma
HCC-2998 colon = system: HCC-2998 colon
HOP-62 NSCLC = system: HOP-62 NSCLC
UACC-62 melanoma = system: UACC-62 melanoma
LOX IMVI melanoma = system: LOX IMVI melanoma
HL-60(TB) leukemia = system: HL-60(TB) leukemia
OVCAR-4 ovarian = system: OVCAR-4 ovarian
OVCAR-8 ovarian = system: OVCAR-8 ovarian
HOP-92 NSCLC = system: HOP-92 NSCLC
COLO 205 colon = system: COLO 205 colon
TK-10 renal = system: TK-10 renal
PC-3 prostate = system: PC-3 prostate
SR leukemia = system: SR leukemia
MDA-N = system: MDA-N
A549 NSCLC = system: A549 NSCLC
BT-549 breast = system: BT-549 breast
RPMI-8226 leukemia = system: RPMI-8226 leukemia
T-47D breast = system: T-47D breast
MDA-MB-231 breast = system: MDA-MB-231 breast
HCT-116 colon = system: HCT-116 colon
M14 melanoma = system: M14 melanoma
OVCAR-3 ovarian = system: OVCAR-3 ovarian
DU-145 prostate = system: DU-145 prostate
IGROV1 ovarian = system: IGROV1 ovarian
UACC-257 melanoma = system: UACC-257 melanoma
MOLT-4 leukemia = system: MOLT-4 leukemia
SF-295 CNS = system: SF-295 CNS

Measured: TGI

COc1ccc(-c2cc3c(c4cc(OC)ccc24)C(=O)OC3=O)cc1
> 100 µM: all assays above
